From article PMC7939385, “Disease-associated mutations in inositol 1,4,5-trisphosphate receptor subunits impair channel function” (The Journal of Biological Chemistry, 2021)

What was measured:
[1] = molecular target: T1, WT rIP3R1 (Rattus norvegicus, UniProt C7E1V2, N602D); test: competitive [3H]IP3 radioligand binding on immunoprecipitated receptor
T1 construct: gene Itpr1; homotetramer, ~300 kDa subunit; Methods give NM_001270596, footnote NM_001007235

[2] = molecular target: T2, WT rIP3R1 (Rattus norvegicus, UniProt C7E1V2); test: as above; conditions: read-out: apparent EC50
T2 construct: gene Itpr1; homotetramer, ~300 kDa subunit; Methods give NM_001270596, footnote NM_001007235
Excerpt: competitive [3H]IP3 radioligand binding on immunoprecipitated receptor on WT rIP3R1 | the apparent EC50 for binding was not markedly altered under these conditions

[3] = molecular target: T3, WT mIP3R2 (Mus musculus, UniProt Q9Z329); test: [3H]IP3 binding on immunoprecipitated receptor; conditions: 2.5 nM [3H]IP3 with 50 uM unlabelled IP3 for nonspecific binding; pH 8, 4 °C, 1 h; labelled compound
T3 construct: gene Itpr2; homotetramer

T1 sequence (C7E1V2 1-2748 N602D): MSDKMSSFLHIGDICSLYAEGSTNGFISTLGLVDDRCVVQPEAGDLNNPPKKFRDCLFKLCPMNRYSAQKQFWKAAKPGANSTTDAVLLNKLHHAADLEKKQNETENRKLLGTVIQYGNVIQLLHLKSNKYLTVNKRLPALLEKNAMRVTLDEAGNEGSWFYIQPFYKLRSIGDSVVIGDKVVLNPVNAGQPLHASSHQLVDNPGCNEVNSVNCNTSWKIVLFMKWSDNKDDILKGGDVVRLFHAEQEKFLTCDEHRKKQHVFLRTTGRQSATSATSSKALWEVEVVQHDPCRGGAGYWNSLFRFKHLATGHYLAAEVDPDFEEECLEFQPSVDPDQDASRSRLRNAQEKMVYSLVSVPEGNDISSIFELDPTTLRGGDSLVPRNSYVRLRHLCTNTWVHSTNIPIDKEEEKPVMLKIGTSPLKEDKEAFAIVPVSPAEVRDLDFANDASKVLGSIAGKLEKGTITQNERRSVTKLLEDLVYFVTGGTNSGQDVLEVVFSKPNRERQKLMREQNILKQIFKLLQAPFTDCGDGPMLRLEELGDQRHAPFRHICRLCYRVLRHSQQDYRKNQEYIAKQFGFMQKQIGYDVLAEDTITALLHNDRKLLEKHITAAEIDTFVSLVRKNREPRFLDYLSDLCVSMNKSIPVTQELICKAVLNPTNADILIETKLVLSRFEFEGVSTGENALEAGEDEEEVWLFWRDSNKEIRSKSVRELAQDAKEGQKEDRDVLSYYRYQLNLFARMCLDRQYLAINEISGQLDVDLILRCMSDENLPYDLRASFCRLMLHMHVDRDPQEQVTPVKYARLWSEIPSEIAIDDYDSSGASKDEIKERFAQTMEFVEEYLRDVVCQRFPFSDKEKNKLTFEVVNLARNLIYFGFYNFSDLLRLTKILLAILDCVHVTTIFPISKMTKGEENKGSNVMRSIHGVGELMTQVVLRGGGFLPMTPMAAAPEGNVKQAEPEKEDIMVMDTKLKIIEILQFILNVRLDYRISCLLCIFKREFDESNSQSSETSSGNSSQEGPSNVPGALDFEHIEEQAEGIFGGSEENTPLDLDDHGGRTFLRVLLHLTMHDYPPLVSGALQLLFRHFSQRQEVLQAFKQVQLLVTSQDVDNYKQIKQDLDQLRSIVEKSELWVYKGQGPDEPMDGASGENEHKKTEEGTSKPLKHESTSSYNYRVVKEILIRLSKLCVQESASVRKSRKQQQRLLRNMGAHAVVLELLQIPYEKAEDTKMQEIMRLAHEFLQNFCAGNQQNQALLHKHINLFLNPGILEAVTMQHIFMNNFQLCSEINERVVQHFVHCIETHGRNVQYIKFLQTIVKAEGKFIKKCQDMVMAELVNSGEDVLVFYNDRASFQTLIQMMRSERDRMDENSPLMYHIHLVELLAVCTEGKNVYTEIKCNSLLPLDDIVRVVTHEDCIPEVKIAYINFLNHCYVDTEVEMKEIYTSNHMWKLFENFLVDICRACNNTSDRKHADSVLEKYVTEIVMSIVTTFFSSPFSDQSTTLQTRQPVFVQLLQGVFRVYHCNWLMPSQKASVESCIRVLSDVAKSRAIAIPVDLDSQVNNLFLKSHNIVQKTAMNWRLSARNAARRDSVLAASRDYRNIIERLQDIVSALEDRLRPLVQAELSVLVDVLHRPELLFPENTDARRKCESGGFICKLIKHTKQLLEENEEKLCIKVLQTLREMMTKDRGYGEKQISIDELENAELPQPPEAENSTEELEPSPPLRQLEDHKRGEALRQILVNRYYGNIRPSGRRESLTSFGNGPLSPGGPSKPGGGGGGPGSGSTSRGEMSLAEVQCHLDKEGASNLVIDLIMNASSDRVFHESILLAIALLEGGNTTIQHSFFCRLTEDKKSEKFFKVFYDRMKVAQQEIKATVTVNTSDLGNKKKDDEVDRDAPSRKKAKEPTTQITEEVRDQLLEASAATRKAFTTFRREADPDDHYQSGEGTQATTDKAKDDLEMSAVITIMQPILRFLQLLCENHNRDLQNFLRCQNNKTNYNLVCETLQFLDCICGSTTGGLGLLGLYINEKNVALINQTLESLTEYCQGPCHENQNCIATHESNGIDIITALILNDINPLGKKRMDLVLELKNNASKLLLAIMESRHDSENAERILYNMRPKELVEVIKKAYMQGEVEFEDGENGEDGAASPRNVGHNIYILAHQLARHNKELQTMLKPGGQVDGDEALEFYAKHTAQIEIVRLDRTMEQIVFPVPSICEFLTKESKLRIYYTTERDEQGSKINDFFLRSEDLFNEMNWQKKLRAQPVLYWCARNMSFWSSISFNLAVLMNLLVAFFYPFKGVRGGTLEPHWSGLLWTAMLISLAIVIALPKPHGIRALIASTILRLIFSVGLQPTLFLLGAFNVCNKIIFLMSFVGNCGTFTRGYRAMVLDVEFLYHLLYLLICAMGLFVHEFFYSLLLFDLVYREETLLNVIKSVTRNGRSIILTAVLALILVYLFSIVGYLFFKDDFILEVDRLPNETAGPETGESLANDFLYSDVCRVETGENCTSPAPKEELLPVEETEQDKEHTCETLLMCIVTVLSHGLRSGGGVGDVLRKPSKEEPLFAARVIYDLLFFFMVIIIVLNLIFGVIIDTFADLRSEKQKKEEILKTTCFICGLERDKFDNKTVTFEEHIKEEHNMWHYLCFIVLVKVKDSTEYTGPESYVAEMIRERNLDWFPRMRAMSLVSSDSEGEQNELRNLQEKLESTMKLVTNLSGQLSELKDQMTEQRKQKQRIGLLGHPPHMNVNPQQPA

SMILES: O=P(O)(O)O[C@@H]1[C@H](O)[C@H](O)[C@@H](OP(=O)(O)O)[C@H](OP(=O)(O)O)[C@H]1O [IP3]
- EC50 [1]: 70.2 ± 1.6 nM
- EC50 [2]: 45.7 ± 5.3 nM
- [3H]IP3 binding on immunoprecipitated receptor [3]: IP3 binding to mIP3R2^GS was comparable with WT mIP3R2
